Patent US10350210B2, “EGFR and ALK dual inhibitor” (PRECEDO PHARMACEUTICALS CO., LTD, priority 2015, dated 2019)

Columns and labels:
Type in all cases: cell-based, human
H1975 = assay: Effect on cell apoptosis (Western Blot, PARP and Caspase 3 cleavage), H1975; conditions: H1975 (EGFR L858R/T790M), 24 hours
Source text: In order to confirm whether the death of cells is through apoptosis or necrosis after administration of drugs, non-small cell lung cancer cell A549 (expressing wild-type EGFR gene), non-small cell lung cancer cell line H1975 (expressing EGFR L858R/T790M double mutant gene), non-small cell lung cancer cell line H3255 (expressing EGFR L858R mutant gene), non-small cell lung cancer cell line H3122 (expressing ALK gene) cell line, and non-small cell lung cancer cell line PC-9 (expressing EGFR delE746_A750 mutant gene) were tested for effect of Compound 1 on cleavage of poly ADP-ribose polymerase PARP which is a DNA repair enzyme and Caspase 3, which were closely related to cell apoptosis. […] Western Blot was used to detect the effect of various concentrations of drugs at various time points on cleavage of poly ADP-ribose polymerase PARP which is a DNA repair enzyme and Caspase 3.

[1] = system: EGFR protein (EGFR L858R/T790M, H1975); assay: Effect on signaling pathway in cells, H1975; conditions: 4 h
Source text: In four cell lines (all purchased from ATCC) including non-small cell lung cancer cell line A549 (expressing wild-type EGFR gene), non-small cell lung cancer cell line H1975 (expressing EGFR L858R/T790M double mutant gene), non-small cell lung cancer cell line H3255 (expressing EGFR L858R mutant gene) and non-small cell lung cancer cell line PC-9 (expressing EGFR delE746_A750 mutant gene), the effect of Compound 1 on EGFR or other protein kinases related to signaling pathways of EGFR such as Stat3, AKT, ErK, eIF4E, 4EBP1, P70S6K was assessed by assaying a number of cellular biochemical and functional endpoints. […] The effect of Compound 1 on phosphorylation of Stat3Y705, AKT T308, AKT 5473, Erk T202/204, EGFR Y1068, P70S6K Thr389, eIF4E Ser209, Erk T202/204, 4EBP1 (Thr37/46) in these cell lines was assayed (FIGS. 1a to 1d).
In non-small cell lung cancer cell line H1975 (expressing EGFR L858R/T790M double mutant gene), the effect of Compound 10 on EGFR and other protein kinases that are closely related to the signaling pathways of EGFR such as Stat3, AKT, ErK, eIF4E, 4EBP1, P70S6K in this cell was assessed by assaying a number of cellular biochemical and functional endpoints. […] The effect of Compound 10 on phosphorylation of Stat3Y705, AKT T308, AKT S473, Erk T202/204, EGFR Y1068, P70S6K Thr389, eIF4E Ser209, Erk T202/204, 4EBP1 (Thr37/46) in this cell line was assayed (FIG. 1g).

NCI-H3122 = assay: Effect on cell cycle (PI staining, flow cytometer), NCI-H3122; conditions: NCI-H3122 (ALK gene), 24 hours
Source text: In order to study which growth phase the cell was halted after administration of the drugs, five cell lines including non-small cell lung cancer cell line A549 (expressing wild-type EGFR gene), non-small cell lung cancer cell line H1975 (expressing EGFR L858R/T790M double mutant gene), non-small cell Lung cancer cell line PC-9 (expressing EGFR delE746_A750 mutant gene), non-small cell lung cancer cell line H3255 (expressing EGFR L858R mutant gene) and non-small cell lung cancer cell NCI-H3122 (expressing ALK gene) were tested for effect of Compound 1 on cell cycle distribution. Two cell lines including non-small cell lung cancer cell NCI-H3122 (expressing ALK gene) and non-small cell lung cancer cell H1975 (expressing EGFR L858R/T790M double mutant gene) were tested for effect of Compound 10 on cell cycle distribution. […]

Row | Structure (SMILES) | concentration at which cleavage of PARP and Caspase 3 could be observed (H1975) | concentration able to completely inhibit the phosphorylation of EGFR protein (also affects AKT and ERK phosphorylation) [1] | effect on cell cycle distribution (NCI-H3122)
1 | C=CC(=O)Nc1cc(Nc2ncc(Cl)c(Nc3ccccc3S(=O)(=O)C(C)C)n2)c(OC)cc1N1CCN(CC)CC1 [Compound 1, N-(5-(5-chloro-4-(2-(isopropylsulfonyl)phenylamino)pyrimidin-2-ylamino)-2-(4-ethylpiperazin-1-yl)-4-methoxyphenyl)acrylamide] | 0.3 µM | 0.03 µM | halt the cells in G0-G1 phase
2 | C=CC(=O)Nc1cc(Nc2ncc(Cl)c(Nc3ccccc3S(=O)(=O)C(C)C)n2)c(OC)cc1N1CCCN(C)CC1 [Compound 10, N-(5-(5-chloro-4-(2-(isopropylsulfonyl)phenylamino)pyrimidin-2-ylamino)-4-methoxy-2-(4-methyl-1,4-homopiperazin-1-yl)phenyl)acrylamide] | 0.3 µM | 0.03 µM | halt the cells in G0-G1 phase
